Measurements from patent US11236072B2, “N-[(pyrimidinylamino)propanyl]-,n-[pyridylamino)propanyl]- and n-[(pyrazinylaminol)propanyl]arylcarboxamides” (Boehringer Ingelheim International GmbH, priority 2017, dated 2022).

System: human MDR1 P-gp
Assay: Assay D: efflux in MDCK cells transfected with the human MDR1 gene
Format: in vitro ADME, canine
Conditions: dog; MDCK-MDR1 monolayers, pH 7.4, 37° C.; read-out: MDCK efflux ratio (BA/AB)
Procedure: The MDCK assay provides information on the potential of a compound to pass the blood brain barrier. Permeability measurements across polarized, confluent MDCK-MDR1 cell monolayers grown on permeable filter supports are used as an in vitro absorption model: apparent permeability coefficients (PE) of the compounds across the MDCK-MDR1 cell monolayers are measured (pH 7.4, 37° C.) in apical-to-basal (AB) and basal-to-apical (BA) transport direction. […] Identical or similar permeabilities in both transport directions indicate passive permeation, vectorial permeability points to additional active transport mechanisms. Higher PEBA than PEAB (PEBA/PEAB>5) indicates the involvement of active efflux mediated by MDR1 P-gp, which might compromises the goal to achieve sufficient brain exposure. Therefore this assay provides valuable support for selection of compounds applicable for further in vivo testing. High permeability not limited by efflux at the blood brain barrier is a favourable characteristic for compounds that are to be used for drugs acting primarily in the CNS
D. Assessment of Efflux in Madin-Darby Canine Kidney (MDCK) Cells Transfected with the Human MDR1 Gene
Apparent permeability coefficients (PE) of the compounds across the MDCK-MDR1 cell monolayers are measured (pH 7.4, 37° C.) in apical-to-basal (AB) and basal-to-apical (BA) transport direction. […] The compounds are assigned to permeability/absorption classes by comparison of the AB permeabilities with the AB permeabilities of reference compounds with known in vitro permeability and oral absorption in the human. Identical or similar permeabilities in both transport directions indicate passive permeation, vectorial permeability points to additional active transport mechanisms. Higher PEBA than PEAB indicates the involvement of active efflux mediated by MDR1 P-gp. Active transport is concentration-dependently saturable.
MDCK-MDR1 cells (1-2×10e5 cells/1 cm2 area) are seeded on filter inserts (Costar transwell polycarbonate or PET filters, 0.4 μm pore size) and cultured (DMEM) for 7 days. Subsequently, the MDR1 expression is boosted by culturing the cells with 5 mM sodium butyrate in full medium for 2 days. Compounds are dissolved in appropriate solvent (like DMSO, 1-20 mM stock solutions). Stock solutions are diluted with HTP-4 buffer (128.13 mM NaCl, 5.36 mM KCl, 1 mM MgSO4, 1.8 mM CaCl2, 4.17 mM NaHCO3, 1.19 mM Na2HPO4×7H2O, 0.41 mM NaH2PO4×H2O, 15 mM HEPES, 20 mM glucose, 0.25% BSA, pH 7.4) to prepare the transport solutions (0.1-300 μM compound, final DMSO<=0.5%). The transport solution (TL) is applied to the apical or basolateral donor side for measuring A-B or B-A permeability (3 filter replicates), respectively. The receiver side contains the same buffer as the donor side. Samples are collected at the start and end of experiment from the donor and at various time intervals for up to 2 hours also from the receiver side for concentration measurement by HPLC-MS/MS or scintillation counting. Sampled receiver volumes are replaced with fresh receiver solution.

Row | Structure (SMILES) | efflux ratio
1 | CCN(C(=O)c1cc(Cl)ccc1-n1nccn1)[C@@H](C)CNc1cnc(C(F)(F)F)cn1 [Example 10] | < 3
2 | C[C@@H](CNc1ncc(C(F)(F)F)cn1)N(C)C(=O)c1cccc(F)c1-c1ncccn1 [Example 9] | < 3
3 | CCN(C(=O)c1cccc(F)c1-n1nccn1)[C@@H](C)CNc1ncc(Br)cn1 [Example 4] | < 3

Biological target: T1, human Orexin 1 receptor (Homo sapiens, UniProt O43613)
T1 sequence (O43613 1-425): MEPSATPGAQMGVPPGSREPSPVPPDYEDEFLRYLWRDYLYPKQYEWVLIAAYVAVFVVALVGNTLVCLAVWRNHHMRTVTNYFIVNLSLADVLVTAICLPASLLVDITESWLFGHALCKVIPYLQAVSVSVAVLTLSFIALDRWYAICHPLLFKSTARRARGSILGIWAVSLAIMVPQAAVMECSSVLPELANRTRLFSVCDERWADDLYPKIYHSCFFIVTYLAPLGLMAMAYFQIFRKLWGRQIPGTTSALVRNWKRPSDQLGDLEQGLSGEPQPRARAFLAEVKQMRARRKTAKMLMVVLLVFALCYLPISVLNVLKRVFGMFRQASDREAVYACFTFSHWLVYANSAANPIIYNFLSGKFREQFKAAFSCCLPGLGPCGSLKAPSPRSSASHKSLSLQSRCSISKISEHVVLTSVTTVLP
Assay: Assay A: in vitro testing of OX1R potency, OX1R IP1
Format: cell-based
Conditions: 50 nM Orexin A concentration
Source text: Chem. Genomics 2009, 3, 22-32.
A. In Vitro Testing of OX1R Potency: OX1R IP1

Row | Structure (SMILES) | Kb [nM]
4 | CCN(C(=O)c1cc(Cl)ccc1-n1nccn1)[C@@H](C)CNc1cnc(C(F)(F)F)cn1 [Example 10] | 0.011
5 | C[C@@H](CNc1ncc(C(F)(F)F)cn1)N(C)C(=O)c1cccc(F)c1-c1ncccn1 [Example 9] | 0.223
6 | CCN(C(=O)c1cccc(F)c1-n1nccn1)[C@@H](C)CNc1ncc(Br)cn1 [Example 4] | 0.116

Same assay, conditions: compared to Example 40 in WO2016/034882

Row | Structure (SMILES) | better potency (OX1R) [fold]
7 | CCN(C(=O)c1cc(Cl)ccc1-n1nccn1)[C@@H](C)CNc1cnc(C(F)(F)F)cn1 [Example 10] | 16

Same assay, conditions: compared to Example 84 in WO2016/034882

Row | Structure (SMILES) | higher potency (OX1R) [fold]
8 | C[C@@H](CNc1ncc(C(F)(F)F)cn1)N(C)C(=O)c1cccc(F)c1-c1ncccn1 [Example 9] | ~10

System: not listed separately
Assay: Assay C: metabolic stability in human liver microsomes (Human MST)
Format: in vitro ADME
Conditions: pH 7.6; pooled human liver microsomes, 1 μM compound, 37° C.; read-out: Human MST t1/2
Source text: Stability in human liver microsomes refers to the susceptibility of compounds to biotransformation in the context of selecting and/or designing drugs with favorable pharmacokinetic properties. The primary site of metabolism for many drugs is the liver. Human liver microsomes contain the cytochrome P450s (CYPs), and thus represent a model system for studying drug metabolization in vitro. Enhanced stability in human liver microsomes is associated with several advantages, including increased bioavailability and longer half-life, which can enable lower and less frequent dosing of patients. Thus, enhanced stability in human liver microsomes is a favorable characteristic for compounds that are to be used for drugs.
C. Assessment of Metabolic Stability in Human Liver Microsomes (Human MST)
The metabolic stability of the compounds according to the invention may be investigated as follows:
The metabolic degradation of the test compound is assayed at 37° C. with pooled human liver microsomes. The final incubation volume of 100 μL per time point contains TRIS buffer pH 7.6 at room temperature (0.1 M), MgCl2 (5 mM), microsomal protein (1 mg/mL) and the test compound at a final concentration of 1 μM. Following a short pre-incubation period at 37° C., the reactions are initiated by addition of beta-nicotinamide adenine dinucleotide phosphate, reduced form (NADPH, 1 mM), and terminated by transferring an aliquot into solvent after different time points. After centrifugation (10000 g, 5 min), an aliquot of the supernatant is assayed by LC-MS/MS for the amount of parent compound. The half-life (t1/2) is determined by the slope of the semi-logarithmic plot of the concentration-time profile.

Row | Structure (SMILES) | half-life at 1 μM [h]
9 | CC[C@@H](CNc1ncc(C(F)(F)F)cn1)N(C)C(=O)c1c(F)cccc1-n1nccn1 [Ex 91 in WO2016/ 034882] | > 2.17
10 | CCN(C(=O)c1cc(Cl)ccc1-n1nccn1)[C@@H](C)CNc1cnc(C(F)(F)F)cn1 [Example 10] | 2.17
11 | C[C@@H](CNc1ncc(C(F)(F)F)cn1)N(C)C(=O)c1cccc(F)c1-c1ncccn1 [Example 9] | > 2.17
12 | CCN(C(=O)c1cccc(F)c1-n1nccn1)[C@@H](C)CNc1ncc(Br)cn1 [Example 4] | > 2.17

Biological target: T2, OX2R (Homo sapiens, UniProt O43614)
T2 sequence (O43614 1-444): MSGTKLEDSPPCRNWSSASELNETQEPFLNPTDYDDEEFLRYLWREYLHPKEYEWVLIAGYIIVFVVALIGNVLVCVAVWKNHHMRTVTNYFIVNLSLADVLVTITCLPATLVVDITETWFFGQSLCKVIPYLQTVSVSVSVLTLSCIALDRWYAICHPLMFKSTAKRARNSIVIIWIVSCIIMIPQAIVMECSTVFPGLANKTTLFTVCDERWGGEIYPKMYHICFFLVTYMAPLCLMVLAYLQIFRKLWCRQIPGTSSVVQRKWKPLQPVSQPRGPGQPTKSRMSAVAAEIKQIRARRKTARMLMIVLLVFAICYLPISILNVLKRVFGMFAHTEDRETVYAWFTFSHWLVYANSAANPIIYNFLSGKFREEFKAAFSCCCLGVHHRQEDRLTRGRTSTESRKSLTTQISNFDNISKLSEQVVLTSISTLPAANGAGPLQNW
Assay: In vitro OX2R potency as reported in WO2016/034882
Conditions: Table 1 of WO2016/034882

Row | Structure (SMILES) | OX2R IC50/OX1R IC50
13 | CC[C@@H](CNc1ncc(C(F)(F)F)cn1)N(C)C(=O)c1nc(C)ccc1-n1nccn1 [Ex 46 in WO2016/ 034882] | 390
14 | CC[C@@H](CNc1cnc(C(F)(F)F)cn1)N(C)C(=O)c1cc(Cl)ccc1-n1nccn1 [Ex 40 in WO2016/ 034882] | Table 1: 156

Same assay, conditions: Table 2 of WO2016/034882

Row | Structure (SMILES) | OX2R IC50/OX1R IC50
15 | CC[C@@H](CNc1ncc(C(F)(F)F)cn1)N(C)C(=O)c1nc(C)ccc1-n1nccn1 [Ex 46 in WO2016/ 034882] | > 312

Same assay, conditions: Table 3 of WO2016/034882

Row | Structure (SMILES) | OX2R IC50/OX1R IC50
16 | CC[C@@H](CNc1ncc(C(F)(F)F)cn1)N(C)C(=O)c1nc(C)ccc1-n1nccn1 [Ex 46 in WO2016/ 034882] | 3200

Biological target: T2, OX2R
Assay: not given
Conditions: Table 2 of WO2016/034882, corresponds to pIC50; cited from earlier work

Row | Structure (SMILES) | IC50 [nM]
17 | CC[C@@H](CNc1ncc(C(F)(F)F)cn1)N(C)C(=O)c1nc(C)ccc1-n1nccn1 [Ex 46 in WO2016/ 034882] | > 10000

Same assay, conditions: Table 2 of WO2016/034882; cited from earlier work

Row | Structure (SMILES) | OX2R pIC50
18 | CC[C@@H](CNc1ncc(C(F)(F)F)cn1)N(C)C(=O)c1nc(C)ccc1-n1nccn1 [Ex 46 in WO2016/ 034882] | < 5.0

Same assay, conditions: Table 3 of WO2016/034882, corresponds to pIC50; cited from earlier work

Row | Structure (SMILES) | IC50 [nM]
19 | CC[C@@H](CNc1ncc(C(F)(F)F)cn1)N(C)C(=O)c1c(F)cccc1-n1nccn1 [Ex 91 in WO2016/ 034882] | ≥ 7590
20 | CC[C@@H](CNc1ncc(C(F)(F)F)cn1)N(CC)C(=O)c1nc(C)ccc1-n1nccn1 [Ex 73 in WO2016/ 034882] | > 1000
21 | CC[C@@H](CNc1ncc(C(F)(F)F)cn1)N(C)C(=O)c1nc(C)ccc1-n1nccn1 [Ex 46 in WO2016/ 034882] | ≥ 10000

Same assay, conditions: Table 3 of WO2016/034882; cited from earlier work

Row | Structure (SMILES) | OX2R pIC50
22 | CC[C@@H](CNc1ncc(C(F)(F)F)cn1)N(C)C(=O)c1c(F)cccc1-n1nccn1 [Ex 91 in WO2016/ 034882] | < 5.1
23 | CC[C@@H](CNc1ncc(C(F)(F)F)cn1)N(CC)C(=O)c1nc(C)ccc1-n1nccn1 [Ex 73 in WO2016/ 034882] | < 6.0
24 | CC[C@@H](CNc1ncc(C(F)(F)F)cn1)N(C)C(=O)c1nc(C)ccc1-n1nccn1 [Ex 46 in WO2016/ 034882] | < 5.0
